{"source": "patent US20150181863A1", "about": "“FLEXIBLE SUPERABSORBENT BINDER POLYMER AND ANTIMICROBIAL AGENT COMPOSITION” (EVONIK INDUSTRIES AG, priority 2013, published 2015)", "system": "Escherichia coli (ATCC 11229)/Staphylococcus aureus (ATCC 6538)/Pseudomonas aeruginosa (ATCC 27853)", "assay": "Zone of Inhibition Test, control line (organism not stated)", "format": "cell-based", "details": "5 μg disk, n = 1; one value only, organism not assigned; 48 hours at ambient temperature", "protocol": "Zone of inhibition testing with a variety of gram negative and gram positive bacteria was performed. The test material was brought into contact with a known amount of test microorganisms on an agar plate for 48 hours at ambient temperature. At the end of the contact time the diameter of inhibited colony formation (zone of inhibition) surrounding the test material was measured.\nReferenced method AATCC 147-1998 “Antibacterial Activity Assessment of Textile Materials: Parallel Streak Method” with changes for following Zone of Inhibition procedure (AATCC is “American Association of Textile Chemists and Colorists” located in Research Triangle Park, N.C.):\nOrganisms used in this study were Escherichia coli (ATCC 11229)/Staphylococcus aureus (ATCC 6538)/Pseudomonas aeruginosa (ATCC 27853) (ATCC is “American Type Culture Collection” an organization in Manassas, Va.). Washed cells were diluted in Butterfield's Phosphate buffer to a target titer of approximately 10^8 colony forming units (CFU)/mL. Agar plates for testing were brought to room temperature prior to inoculation. A sterile applicator swab was placed in cell suspension and excess fluid was expressed using the side of the centrifuge tube. […] At the end of the contact time, the diameter of inhibited colony formation (zone of inhibition) surrounding the test material was measured."}
{"molecule": "CN[C@H](CC(C)C)C(=O)N[C@H]1C(=O)N[C@@H](CC(N)=O)C(=O)N[C@H]2C(=O)N[C@H]3C(=O)N[C@H](C(=O)N[C@H](C(=O)O)c4cc(O)cc(O)c4-c4cc3ccc4O)[C@H](O)c3ccc(c(Cl)c3)Oc3cc2cc(c3O[C@@H]2O[C@H](CO)[C@@H](O)[C@H](O)[C@H]2O[C@H]2C[C@](C)(N)[C@H](O)[C@H](C)O2)Oc2ccc(cc2Cl)[C@H]1O", "note": "[Positive Control, vancomycin]", "values": [{"measurement": "ZOI* (cm), single value for control", "result": 1.9, "unit": "cm"}]}
